Here are results for nine molecules from PubChem BioAssay (NCI).

Holding throughout (test): NCI tumour cell line growth inhibition, 48 h
Assay [1] relates to HL-60(TB) leukemia.
Assay [2] has as its system IGROV1 ovarian.
For assay [3], the system named is RXF 393 renal.
In assay [4] the test system is HOP-62 NSCLC.
Assay [5] relates to SW-620 colon.
Assay [6] relates to SK-MEL-2 melanoma.
Assay [7] deals with RPMI-8226 leukemia.
Assay [8] concerns UACC-257 melanoma.
The subject of assay [9] is SK-MEL-5 melanoma.
In assay [10] the test system is OVCAR-8 ovarian.

“And” between values parts separate entries of the source, which are not always exact repeats. Equal entries are not always repeated.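 Step 1: Grow cells in 96-well plates. Step 2: Expose to compound for 48 hours at 5 concentrations. Step 3: Interpolate endpoints linearly; if unreached, use highest concentration. GI50 marks 50% less growth. TGI: concentration producing complete growth inhibition.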

In the case of `Nc1ccccc1C#Cc1ccccc1C#Cc1cccs1`, the GI50 was 11 µM in assay [1]; 18.4 µM in [2]; 18.2 µM in assay [3]; 15.1 µM in assay [4]; 18 µM in [5]; 30.2 µM in assay [6]. Also, the GI50 in assay [7] was 14.1 µM; in [8], 18.1 µM; in assay [9], 7.59 µM; in assay [10], 42.7 µM. For the same molecule, the TGI is over 100 µM in assay [1]; 90.8 µM in assay [2]; over 100 µM in assay [3]; 29.3 µM in assay [4]; 41.1 µM in [5]; 73.5 µM in assay [6]. Moreover, the TGI in assay [7] was 40.6 µM; in assay [8] it was 53.2 µM; in assay [9], 22.3 µM; in assay [10] it was over 100 µM.

Consider `Cn1c(=O)c2c(nc(N/N=C/c3ccccc3C(=O)O)n2C)n(C)c1=O`, for which the TGI in assay [1], in [2], in assay [3], in assay [4], in assay [5] and in assay [6] was over 100 µM each time. In addition, the TGI in assay [7], in assay [8], in assay [9] and in [10] was over 100 µM throughout.

Consider `CCCCC1(C(NC(=O)c2ccccc2Cl)c2ccncc2)C(=O)N(c2ccccc2)N(c2ccccc2)C1=O` (stereo not given), for which the TGI in assay [1] is 40.8 µM; in assay [2] it was over 100 µM; in assay [3], over 100 µM; in assay [4], over 100 µM; in assay [5], over 100 µM; in [6], over 100 µM. In addition, the TGI was 84.1 µM in assay [7], over 100 µM in assay [8], 60 µM in assay [9] and over 100 µM in assay [10].

For `OCC(O)C(O)C(O)C(O)c1nnc2c(-c3ccccc3)nc3ccccc3n12` (stereo not given), the GI50 in [1] was over 100 µM; in assay [2], 14.5 µM; in [3] it was 56.8 µM; in assay [4], over 100 µM; in assay [5], over 100 µM; in assay [6], over 100 µM. Moreover, the GI50 in assay [7] is 67.2 µM; in [8], over 100 µM; in assay [9], 70.3 µM; in assay [10], 53.5 µM. The TGI in [1], in [2], in [3], in [4], in [5] and in assay [6] was over 100 µM throughout. The TGI in [7], in [8], in assay [9] and in [10] was over 100 µM each time.

Consider `CC1(C)N=C(N)N=C(N)N1c1cccc(CCc2ccccc2)c1`, for which the GI50 was 1.89 µM in assay [1]; 0.113 µM in assay [2]; 3.82 µM in assay [3]; 1.29 µM in assay [4]; 0.156 µM in assay [5]; 1.94 µM in assay [6]. In addition, the GI50 is 1.63 µM in assay [7], 0.533 µM in assay [8], 0.429 µM in [9] and 0.634 µM in assay [10]. The TGI in assay [1] is 28.7 µM; in [2], 17.6 µM; in [3], over 100 µM; in [4], over 100 µM; in assay [5], over 100 µM; in assay [6], over 67.5 µM. Besides, the TGI was over 58.6 µM in assay [7], 32.5 µM in assay [8], 8.82 µM in assay [9] and over 100 µM in [10].

In the case of `CC(=O)OCC1OC(n2c3c(cc(C#N)c2=S)CCCC3)C(OC(C)=O)C(OC(C)=O)C1OC(C)=O` (stereo not given), the GI50 in assay [1] is 48.9 µM and > 100 µM; in assay [3] it was > 100 µM and 20.4 µM; in assay [4] it was 83.3 µM and 19.9 µM; in assay [5], 44.6 µM and > 100 µM; in [6] it was > 100 µM and 27 µM; in assay [7] it was 32.6 µM and > 100 µM. Besides, the TGI in assay [1] is over 100 µM; in [2], over 100 µM; in assay [3] it was > 100 µM and 63.7 µM; in [4] it was > 100 µM and 51.5 µM; in [5] it was over 100 µM; in assay [6], over 100 µM. The TGI in assay [7], in assay [8], in [9] and in assay [10] was over 100 µM throughout.

Regarding `COc1cc2c3cc1Oc1c(OC)c(OC)cc4c1C(Cc1ccc(O)c(c1)Oc1ccc(cc1)CC3N(C)CC2)N(C)CC4` (stereo not given), the GI50 is 20.2 µM in assay [1]; 27.7 µM in assay [2]; 2.18 µM in assay [3]; 24.3 µM in assay [4]; 20.2 µM in assay [6]; 11.8 µM in [7]. The GI50 in assay [8] is 5.99 µM; in assay [9] it was 11 µM; in assay [10] it was 21.4 µM. The TGI in assay [1] was 91.3 µM and 54.6 µM; in assay [2] it was over 100 µM; in [3], 14.8 µM; in assay [4] it was > 100 µM and 64.8 µM; in assay [5], > 100 µM and 33.4 µM; in assay [6], > 100 µM and 36.6 µM. The TGI was 40.1 µM in assay [7]; > 100 µM and 18.9 µM in [8]; 52 µM and 23.3 µM in assay [9]; over 100 µM in assay [10].

For `NC1=NCN(C2OC(CO)C(O)C2O)C(=O)N1` (stereo not given), the TGI in [1] was 18.4 µM; in [2], 299 µM; in assay [3], 218 µM; in assay [4], 966 µM; in assay [5], 1340 µM; in assay [6], 7.06 µM. For the same molecule, the TGI in assay [7] stood at 159 µM; in assay [8] it was 1430 µM; in assay [9] it was 335 µM; in assay [10], 1870 µM.

With `O=C1C(=O)C2(CC1S(=O)(=O)c1ccccc1)c1ccccc1-c1ccccc12` (stereo not given), the TGI in [1] worked out at 58 µM; in assay [2], 47.9 µM; in assay [3], 35.6 µM; in assay [4], 44 µM; in [5] it was 85.1 µM; in [6] it was 33.8 µM. Moreover, the TGI was 58.9 µM in assay [7], 33 µM in [8], 28.2 µM in assay [9] and 34.5 µM in assay [10].
